# Where a name gives a salt, the structure may show the parent alone.
# Test system: Cdc7 (pS53MCM2 levels in SW48 cells)
# Assay: Cdc7 Cell Pharmacodynamics Assay Method 3: pS53MCM2 levels in SW48 cells, 6 hours
# Format: cell-based
# Details: Homo sapiens, SW48, 6 h, read-out: Biomarker Method 3 (pEC50) (converted)
row,SMILES,EC50
1,"O=c1[nH]c(-c2ccnc(F)c2)nc(N2CCCC(F)(F)C2)c1Cl [Compound 90, 5-chloro-4-(3,3-difluoro-1-piperidyl)-2-(2-fluoro-4-pyridyl)-1H-pyrimidin-6-one]",589 nM
2,O=c1[nH]c(-c2ccncc2)nc(N2CCN[C@H](C(F)(F)F)C2)c1Cl [Compound 139],4070 nM
3,O=c1[nH]c(-c2ccncc2)nc(N2CCN[C@@H](C(F)(F)F)C2)c1Cl [Compound 180],339 nM
4,"O=c1[nH]c(-c2ccnc(F)c2)nc(N2CCNCC(F)(F)C2)c1Cl [Compound 312, 5-chloro-4-(6,6-difluoro-1,4-diazepan-1-yl)-2-(2-fluoro-4-pyridyl)-1H-pyrimidin-6-one hydrochloride]",145 nM
5,C[C@@H]1CNCCN1c1nc(-c2ccnc(F)c2)[nH]c(=O)c1Cl [Compound 323],79.4 nM
